The values below are quoted from earlier work in patent US12553008B2, “Extracting and refining plant cuticular waxes from aqueous dispersion using temperature and pH adjustment” (JENA TRADING APS, priority 2019, dated 2026).

Like-named read-outs stand apart in the source and are kept apart here.

Test in data set [1]: not given
This is another data set of the same source.

Turning to `CCCCCCCCCCCC(=O)O` [Lauric (C12 saturated), Lauric], the “Solubility of free fatty acids in water” value runs as follows: (at 30° C.) 63 mg/L at 30 °C; (at 45° C.) 72 mg/L at 45 °C. Besides, the pKa in data set [1] was 5.3.
Consider `CCCCCCCCCCCCCC(=O)O` [Myristic (C14 saturated), Myristic], for which the “Solubility of free fatty acids in water” value is 24 mg/L at 30 °C (at 30° C.) and 33 mg/L at 60 °C (at 60° C.). Moreover, the pKa in data set [1] is given as 4.9.
Turning to `CCCCCCCC/C=C\CCCCCCCC(=O)O` [Oleic (C18 mono-unsaturated), oleic acid], the “Solubility of free fatty acids in water” value reads like this: (in words, no temperature printed) “Insoluble”; (in words, no temperature printed, listed as oleic) “very low”.
In the case of `CCCCCCCCCCCCCCCC(=O)O` [Palmitic (C16 saturated), Palmitic], the pKa in data set [1] is on record as 4.75.
Consider `CCCCCCCCCCCCCCCCCC(=O)O` [Stearic (C18 saturated), Stearic], for which the pKa in data set [1] is reported as 4.8-4.9.

For orientation: pKa means the negative logarithm of the acid dissociation constant.
